Test results published in patent US20230150980A1, “COLLAGEN 1 TRANSLATION INHIBITORS AND METHODS OF USE THEREOF” (Anima Biotech Inc., priority 2020, published 2023).
Counter-ions that a name gives are not always drawn.

Test system: collagen 1
Assay: WI-38 collagen 1 inhibition assay (anti-Collagen I immunofluorescence);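 also: minus sign means inactive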
Type: cell-based
Details: cellular EC50, WI-38 human lung fibroblasts, values are LogEC50 classes
Method: WI-38 cells (ATCC® CCL-75™) were maintained in MEM EAGLE (NEAA) W. GLUTAMIN (Biological Industries, Cat. 06-1040-15-1A) containing 10% fetal bovine serum (FBS) and 1% Penicillin-Streptomycin Solution. To synchronize the cells (cell cycle synchronization) prior to induction of collagen synthesis, the cells were starved using DMEM-low glucose supplemented with 0.25% FBS for two hours and then without FBS for 24 hours. To induce collagen synthesis, the cells were treated with a collagen induction cocktail for the indicated time. Compounds were added with induction.
Cells in 96-well or 384-well plates were fixed for 20 min in 4% paraformaldehyde (PFA, ENCO, Cat. sc-281692). Following two washes with 1×PBS, cells were treated with hydrogen peroxide (Acros, Cat: 7722-84-1) for 10 minutes and then washed twice with 1×PBS. Cells were then incubated over-night at 4° C. with Anti-Collagen I (Sigma-Aldrich, Cat: C 2456) antibody and washed three times with 1×PBS. Cell were then incubated with a suitable secondary fluorescently-tagged antibody and nuclei stained with DAPI, for 1 hour, and then washed 3 times with 1×PBS.
Cell images were taken with Operetta (Perkin Elmer, USA), a wide-field fluorescence microscope at 20× magnification. After acquisition, the images were transferred to Columbus software (Perkin-Elmer) for image analysis. In Columbus, cells were identified by their nucleus, using the “Find Nuceli” module and cytoplasm was detected based on the secondary antibody channel. Subsequently, the fluorescent signal was enumerated in the identified cell region. Data was exported to a data analysis and visualization software, Tibco Spotfire, USA.

## c1ccc2[nH]c(CN3CCN(c4ccnc5[nH]ccc45)CC3)cc2c1 [compound 242, 4-[4-(1H-indol-2-ylmethyl)piperazin-1-yl]-1H-pyrrolo[2,3-b]pyridine]
  COL1 Efficacy (LogEC50): + (+: >−5)

## Clc1cccc2[nH]c(CN3CCN(c4ccncc4)CC3)cc12 [compound 243, 4-chloro-2-[[4-(4-pyridyl)piperazin-1-yl]methyl]-1H-indole]
  COL1 Efficacy (LogEC50): −

## O=C(c1cc2ccccc2[nH]1)N1CCN(c2ccncc2)CC1 [compound 244, (1H-indol-2-yl)(4-(pyridin-4-yl)piperazin-1-yl)methanone]
  COL1 Efficacy (LogEC50): + (+: >−5)

## Clc1ccc2[nH]c(CN3CCN(c4ccncc4)CC3)cc2c1 [compound 245, 5-chloro-2-[[4-(4-pyridyl)piperazin-1-yl]methyl]-1H-indole formate]
  COL1 Efficacy (LogEC50): −

## Nc1ccc2[nH]c(CN3CCN(c4ccncc4)CC3)cc2c1 [compound 246, 2-[[4-(4-pyridyl)piperazin-1-yl]methyl]-1H-indol-5-amine]
  COL1 Efficacy (LogEC50): ++ (++: −5 to −6)

## Clc1cccc2cc(CN3CCN(c4ccncc4)CC3)[nH]c12 [compound 247, 7-chloro-2-[[4-(4-pyridyl)piperazin-1-yl]methyl]-1H-indole]
  COL1 Efficacy (LogEC50): +++ (+++: <−6)

## Clc1c(CN2CCN(c3ccncc3)CC2)[nH]c2ccccc12 [compound 248, 3-chloro-2-[[4-(4-pyridyl)piperazin-1-yl]methyl]-1H-indole]
  COL1 Efficacy (LogEC50): +++ (+++: <−6)

## O=C(Nc1ccc2[nH]c(CN3CCN(c4ccncc4)CC3)cc2c1)c1ccccc1 [compound 249, N-[2-[[4-(4-pyridyl)piperazin-1-yl]methyl]-1H-indol-5-yl]benzamide]
  COL1 Efficacy (LogEC50): +++ (+++: <−6)

## O=C(Nc1ccccc1)c1ccc2[nH]c(CN3CCN(c4ccncc4)CC3)cc2c1 [compound 250, N-phenyl-2-[[4-(4-pyridyl)piperazin-1-yl]methyl]-1H-indole-5-carboxamide]
  COL1 Efficacy (LogEC50): + (+: >−5)

## CS(=O)(=O)Nc1ccc2[nH]c(CN3CCN(c4ccncc4)CC3)cc2c1 [compound 251, N-[2-[[4-(4-pyridyl)piperazin-1-yl]methyl]-1H-indol-5-yl]methanesulfonamide]
  COL1 Efficacy (LogEC50): + (+: >−5)

## Cc1ccc2[nH]c(CN3CCN(c4ccncc4)CC3)cc2c1 [compound 252, 5-methyl-2-[[4-(4-pyridyl)piperazin-1-yl]methyl]-1H-indole]
  COL1 Efficacy (LogEC50): ++ (++: −5 to −6)

## c1ccc2[nH]c(CN3CCN(c4ccncc4)CC3)nc2c1 [compound 253, 2-[[4-(4-pyridyl)piperazin-1-yl]methyl]-1H-benzimidazole]
  COL1 Efficacy (LogEC50): ++ (++: −5 to −6)

## Cc1ncnc(N2CCN(Cc3nc4ccccc4s3)CC2)c1C [compound 254, 2-[[4-(5,6-dimethylpyrimidin-4-yl)piperazin-1-yl]methyl]-1,3-benzothiazole]
  COL1 Efficacy (LogEC50): +++ (+++: <−6)

## FC(F)(F)c1ccc2cc(CN3CCN(c4ccncc4)CC3)[nH]c2c1 [compound 255, 2-[[4-(4-pyridyl)piperazin-1-yl]methyl]-6-(trifluoromethyl)-1H-indole]
  COL1 Efficacy (LogEC50): +++ (+++: <−6)

## N#Cc1ccc2[nH]c(CN3CCN(c4ccncc4)CC3)cc2c1 [compound 256, 2-[[4-(4-pyridyl)piperazin-1-yl]methyl]-1H-indole-5-carbonitrile]
  COL1 Efficacy (LogEC50): +++ (+++: <−6)

## Cc1ncnc(N2CCN(Cc3nc4ccccc4[nH]3)CC2)c1C [compound 257, 2-[[4-(5,6-dimethylpyrimidin-4-yl)piperazin-1-yl]methyl]-1H-benzimidazole]
  COL1 Efficacy (LogEC50): ++ (++: −5 to −6)

## CC(=O)Nc1ccc2[nH]c(CN3CCN(c4ccncc4)CC3)cc2c1 [compound 258, N-[2-[[4-(4-pyridyl)piperazin-1-yl]methyl]-1H-indol-5-yl]acetamide]
  COL1 Efficacy (LogEC50): ++ (++: −5 to −6)

## Cc1ncnc(N2CCN(Cc3nc4ccccc4o3)CC2)c1C [compound 259, 2-[[4-(5,6-dimethylpyrimidin-4-yl)piperazin-1-yl]methyl]-1,3-benzoxazole]
  COL1 Efficacy (LogEC50): +++ (+++: <−6)

## COCCOc1ccc2[nH]c(CN3CCN(c4ccncc4)CC3)cc2c1 [compound 260, 5-(2-methoxyethoxy)-2-[[4-(4-pyridyl)piperazin-1-yl]methyl]-1H-indole]
  COL1 Efficacy (LogEC50): ++ (++: −5 to −6)

## COCCOc1ccc2c(c1)cc(CN1CCN(c3ccncc3)CC1)n2CCOC [compound 261, 5-(2-methoxyethoxy)-1-(2-methoxyethyl)-2-((4-(pyridin-4-yl)piperazin-1-yl)methyl)-1H-indole]
  COL1 Efficacy (LogEC50): −

## c1cc(CN2CCN(c3ccncc3)CC2)c2[nH]ccc2c1 [compound 262, 7-[[4-(4-pyridyl)piperazin-1-yl]methyl]-1H-indole]
  COL1 Efficacy (LogEC50): −

## c1cc(CN2CCN(c3ccncc3)CC2)c2cc[nH]c2c1 [compound 263, 4-[[4-(4-pyridyl)piperazin-1-yl]methyl]-1H-indole]
  COL1 Efficacy (LogEC50): −

## c1cc(N2CCN(Cc3ccc4[nH]ccc4c3)CC2)ccn1 [compound 264, 5-[[4-(4-pyridyl)piperazin-1-yl]methyl]-1H-indole]
  COL1 Efficacy (LogEC50): −

## c1cc(N2CCN(Cc3ccc4cc[nH]c4c3)CC2)ccn1 [compound 265, 6-[[4-(4-pyridyl)piperazin-1-yl]methyl]-1H-indole]
  COL1 Efficacy (LogEC50): ++ (++: −5 to −6)

## Cc1cncnc1N1CCN(Cc2cc3ccccc3[nH]2)CC1 [compound 266, 2-[[4-(5-methylpyrimidin-4-yl)piperazin-1-yl]methyl]-1H-indole formate]
  COL1 Efficacy (LogEC50): + (+: >−5)

## OC1(c2ccncc2)CCN(Cc2cc3ccccc3[nH]2)CC1 [compound 267, 1-(1H-indol-2-ylmethyl)-4-(4-pyridyl)piperidin-4-ol]
  COL1 Efficacy (LogEC50): −

## c1ccc2[nH]c(CN3CCC(Oc4ccncc4)CC3)cc2c1 [compound 268, 2-[[4-(4-pyridyloxy)-1-piperidyl]methyl]-1H-indole]
  COL1 Efficacy (LogEC50): ++ (++: −5 to −6)

## c1ccc2[nH]c(CN3CCC(c4ccncc4)CC3)cc2c1 [compound 269, 2-[[4-(4-pyridyl)-1-piperidyl]methyl]-1H-indole]
  COL1 Efficacy (LogEC50): −

## c1cc(N2CCN(Cc3cc4ccncc4[nH]3)CC2)ccn1 [compound 270, 2-[[4-(4-pyridyl)piperazin-1-yl]methyl]-1H-pyrrolo[2,3-c]pyridine]
  COL1 Efficacy (LogEC50): −

## c1ccc2[nH]c(CN3CC4(C3)CN(c3ccncc3)C4)cc2c1 [compound 271, 2-[[2-(4-pyridyl)-2,6-diazaspiro[3.3]heptan-6-yl]methyl]-1H-indole]
  COL1 Efficacy (LogEC50): −

## c1ccc2[nH]c(CN3CCC4(CCN(c5ccncc5)C4)C3)cc2c1 (stereo not drawn) [compound 272, 7-(1H-indol-2-ylmethyl)-2-(4-pyridyl)-2,7-diazaspiro[4.4]nonane]
  COL1 Efficacy (LogEC50): −

## c1ccc2[nH]c(CN3CCCN(c4ccncc4)CC3)cc2c1 [compound 273, 2-[[4-(4-pyridyl)-1,4-diazepan-1-yl]methyl]-1H-indole]
  COL1 Efficacy (LogEC50): −

## c1ccn2cc(CN3CCN(c4ccncc4)CC3)nc2c1 [compound 274, 2-[[4-(4-pyridyl)piperazin-1-yl]methyl]imidazo[1,2-a]pyridine]
  COL1 Efficacy (LogEC50): −

## c1cnc2[nH]c(CN3CCN(c4ccncc4)CC3)cc2c1 [compound 275, 2-[[4-(4-pyridyl)piperazin-1-yl]methyl]-1H-pyrrolo[2,3-b]pyridine]
  COL1 Efficacy (LogEC50): −

## C[C@@H]1CN(Cc2cc3ccccc3[nH]2)C[C@H](C)N1c1ccncc1 [compound 276, 2-[[(3S,5R)-3,5-dimethyl-4-(4-pyridyl)piperazin-1-yl]methyl]-1H-indole]
  COL1 Efficacy (LogEC50): −

## c1ccc2c(CN3CCN(c4ccncc4)CC3)c[nH]c2c1 [compound 277, 3-((4-(pyridin-4-yl)piperazin-1-yl)methyl)-1H-indole bis 2,2,2-trifluoroacetate]
  COL1 Efficacy (LogEC50): −

## c1ccc2[nH]c(CN3CCN(c4cncnc4)CC3)cc2c1 [compound 278, 2-[(4-pyrimidin-5-ylpiperazin-1-yl)methyl]-1H-indole formate]
  COL1 Efficacy (LogEC50): −

## c1ccc2[nH]c(CN3CCN(c4ccnnc4)CC3)cc2c1 [compound 279, 2-[(4-pyridazin-4-ylpiperazin-1-yl)methyl]-1H-indole formate]
  COL1 Efficacy (LogEC50): −

## N#Cc1c(CN2CCN(c3ccncc3)CC2)[nH]c2ccccc12 [compound 280, 2-[[4-(4-pyridyl)piperazin-1-yl]methyl]-1H-indole-3-carbonitrile]
  COL1 Efficacy (LogEC50): −
